Laboratory results as given in patent US10975037B2 (priority 2018, dated 2021).
Where two headings read alike, the source gives them in different places.

How the values were obtained:
RORγT = RORγT (Mus musculus (Mouse), UniProt P51450); settings: mice; cited from earlier work
[1] = biological target: human RORγt ligand binding domain (RORγt LBD) (Homo sapiens (Human), UniProt P51449); assay: RORγt ThermoFluor® assay (thermal shift binding)
How it was run: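 Thermal shift with 0.065 mg/mL RORγt LBD and 60 μM 1,8-ANS in 100 mM Hepes pH 7.0, 10 mM NaCl, 2.5 mM GSH, 0.002% Tween-20.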

[2] = test system: IL-17 production by CD4 T cells under conditions which favor Th17 differentiation; assay: Human Th17 assay (IL-17 production by CD4 T cells); assay type: cell-based
Protocol: The human Th17 assay tests the effect of RORγt modulatory compounds on IL-17 production by CD4 T cells under conditions which favor Th17 differentiation. Total CD4^+ T cells were isolated from the peripheral blood mononuclear cells (PBMC) of healthy donors using a CD4^+ T cell isolation kit II, following the manufacturer's instructions (Miltenyi Biotec). […] 50 μL of compound at titrated concentrations in DMSO were added into each well at final DMSO concentration at 0.2%. Cells were incubated for 1 hour, then 50 μL of Th17 cell differentiation medium was added to each well. […] Cells were cultured at 37° C. and 5% CO2 for 3 days. Supernatants were collected and the accumulated IL-17 in culture was measured by using MULTI-SPOT® Cytokine Plate following manufacture's instruction (Meso Scale Discovery). The plate was read using Sector Imager 6000, and IL-17 concentration was extrapolated from the standard curve. The IC50s were determined by GraphPad.

full-length human RORγt = full-length human RORγt (Homo sapiens (Human), UniProt P51449); assay: RORγt (full-length human) reporter assay, conditions A or B, HEK293T cells; assay type: cell-based; settings: for IC50: RORγt (FL) Reporter Assay A or B, IC50, HEK293T cells; for inhibition at 0.67 µM: 0.67 μM compound concentration (footnote ****)
How it was run: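 Dual-luciferase read-out was taken after an overnight (16–20 h) compound exposure. Firefly data were scaled between DMSO-only and saturating reference compound, Renilla-normalized, then plotted against concentration for IC50.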

[3] = read-out: ThermoFluor® Assay, Kd
[4] = Homo sapiens, CD4+ T; read-out: Human Th17 Assay, IC50
[5] = HEK-293T, read-out: RORγt (FL) Reporter Assay A or B, % inhibition

Sequence of human RORγt ligand binding domain (RORγt LBD) (P51449 other isoform, or with tags, fused parts or gaps): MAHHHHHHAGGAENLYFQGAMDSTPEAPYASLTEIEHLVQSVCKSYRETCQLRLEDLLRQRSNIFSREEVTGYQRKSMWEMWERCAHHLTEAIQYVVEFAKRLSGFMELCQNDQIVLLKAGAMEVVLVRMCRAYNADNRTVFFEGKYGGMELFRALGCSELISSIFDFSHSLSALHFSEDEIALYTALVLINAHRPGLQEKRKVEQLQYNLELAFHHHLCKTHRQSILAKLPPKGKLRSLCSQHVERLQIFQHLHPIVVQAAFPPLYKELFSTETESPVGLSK
Sequence of full-length human RORγt (P51449 other isoform, or with tags, fused parts or gaps): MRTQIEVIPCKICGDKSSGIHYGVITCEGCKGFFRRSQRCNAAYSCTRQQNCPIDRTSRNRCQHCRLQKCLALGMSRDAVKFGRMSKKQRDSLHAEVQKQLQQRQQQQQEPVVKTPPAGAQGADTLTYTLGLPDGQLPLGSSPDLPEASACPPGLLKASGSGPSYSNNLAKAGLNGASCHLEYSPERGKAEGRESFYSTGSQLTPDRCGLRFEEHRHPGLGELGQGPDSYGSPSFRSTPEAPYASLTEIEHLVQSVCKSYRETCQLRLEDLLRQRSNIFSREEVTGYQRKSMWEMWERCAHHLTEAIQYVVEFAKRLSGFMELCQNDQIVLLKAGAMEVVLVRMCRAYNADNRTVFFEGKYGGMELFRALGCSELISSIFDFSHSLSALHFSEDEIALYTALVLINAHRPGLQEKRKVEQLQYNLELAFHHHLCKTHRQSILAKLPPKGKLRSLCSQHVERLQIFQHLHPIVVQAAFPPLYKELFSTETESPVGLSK
Sequence of RORγT (P51450 other isoform, or with tags, fused parts or gaps): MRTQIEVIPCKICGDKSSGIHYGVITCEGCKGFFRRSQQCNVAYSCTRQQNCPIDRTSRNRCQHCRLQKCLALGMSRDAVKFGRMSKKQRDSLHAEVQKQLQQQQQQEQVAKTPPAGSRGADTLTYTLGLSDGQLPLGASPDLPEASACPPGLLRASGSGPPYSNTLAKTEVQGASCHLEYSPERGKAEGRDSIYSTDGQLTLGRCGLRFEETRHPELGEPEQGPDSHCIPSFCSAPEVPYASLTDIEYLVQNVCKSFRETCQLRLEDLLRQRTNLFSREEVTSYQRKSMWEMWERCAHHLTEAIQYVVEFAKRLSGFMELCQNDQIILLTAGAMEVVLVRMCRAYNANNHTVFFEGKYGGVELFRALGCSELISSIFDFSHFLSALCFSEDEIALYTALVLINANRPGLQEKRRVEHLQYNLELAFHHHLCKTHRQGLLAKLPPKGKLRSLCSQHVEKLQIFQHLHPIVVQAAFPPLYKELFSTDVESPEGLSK

| SMILES | Kd [1, 3] [nM] | IC50 [2, 4] [nM] | IC50 (full-length human RORγt) [nM] | further results |
| --- | --- | --- | --- | --- |
| CC(=O)Nc1nc(C)c(S(=O)(=O)Nc2ccc(C(O)(C(F)(F)F)C(F)(F)F)cc2)s1 [SR1001] |  |  |  | Th17-dependent learned helplessness (RORγT): reduced Th17-dependent learned helplessness |
| CCn1nc(C(=O)NC[C@H]2CC[C@H](S(C)(=O)=O)CC2)c(Cl)c1-c1ccc(CC(C)(C)C(F)(F)F)cc1Cl [Example 165, 4-Chloro-5-(2-chloro-4-(3,3,3-trifluoro-2,2-dimethylpropyl)phenyl)-1-ethyl-N-(((1r,4r)-4-(methylsulfonyl)cyclohexyl)methyl)-1H-pyrazole-3-carboxamide] | 0.45 | 13 | 8 | inhibition at 0.07 µM (full-length human RORγt; HEK-293T, 0.07 μM compound concentration (footnote *********), read-out: RORγt (FL) Reporter Assay A or B, % inhibition): 52% |
| CCn1nc(C(=O)NC[C@]2(O)CC[C@@H](S(C)(=O)=O)CC2)c(Cl)c1-c1ccc(CC(C)(C)C(F)(F)F)cc1OC(F)F [Example 132, 4-Chloro-5-(2-(difluoromethoxy)-4-(3,3,3-trifluoro-2,2-dimethylpropyl)phenyl)-1-ethyl-N-(((1s,4s)-1-hydroxy-4-(methylsulfonyl)cyclohexyl)methyl)-1H-pyrazole-3-carboxamide] | 0.45 |  | 8.1 | IC50 ([2]; Homo sapiens, CD4+ T, read-out: Human Th17 Assay, IC50): 6 nM; inhibition at 2 µM (full-length human RORγt; [5]): 99% |
| CCn1nc(C(=O)NC[C@H]2CC[C@H](S(C)(=O)=O)CC2)c(C)c1-c1ccc(CC(C)(C)C(F)(F)F)cc1OC [Example 227, 1-Ethyl-5-(2-methoxy-4-(3,3,3-trifluoro-2,2-dimethylpropyl)phenyl)-4-methyl-N-(((1r,4r)-4-(methylsulfonyl)cyclohexyl)methyl)-1H-pyrazole-3-carboxamide] | 1.1 | 14 | 9 | inhibition at 0.67 µM (full-length human RORγt; [5]): 92% |
| CCn1nc(C(=O)NC[C@]2(O)CC[C@@H](S(C)(=O)=O)CC2)c(C)c1-c1ccc(CC(C)(C)C(F)(F)F)cc1OC(F)F [Example 143, 5-(2-(Difluoromethoxy)-4-(3,3,3-trifluoro-2,2-dimethylpropyl)phenyl)-1-ethyl-N-(((1s,4s)-1-hydroxy-4-(methylsulfonyl)cyclohexyl)methyl)-4-methyl-1H-pyrazole-3-carboxamide] | 0.37 | 10 | 7.3 | inhibition at […] (full-length human RORγt; HEK-293T, 0.22 μM compound concentration (footnote *******), read-out: RORγt (FL) Reporter Assay A or B, % inhibition): 101% |
| CCn1nc(C(=O)NC[C@]2(O)CC[C@@H](S(C)(=O)=O)CC2)c(C)c1-c1ccc(CCCC(F)(F)F)cc1OC(F)F [Example 79, 5-(2-(Difluoromethoxy)-4-(4,4,4-trifluorobutyl)phenyl)-1-ethyl-N-(((1s,4s)-1-hydroxy-4-(methylsulfonyl)cyclohexyl)methyl)-4-methyl-1H-pyrazole-3-carboxamide] | 2 | 58 | 8.7 | inhibition at 0.67 µM (full-length human RORγt; [5]): 99% |
| CCn1nc(C(=O)NC[C@]2(O)CC[C@@H](S(C)(=O)=O)C[C@H]2O)c(Cl)c1-c1ccc(C[C@H](C)C(F)(F)F)cc1OC(F)F (stereo in doubt) [Example 53, 4-Chloro-5-(2-(difluoromethoxy)-4-((S*)-3,3,3-trifluoro-2-methylpropyl)phenyl)-N-(((1R*,2R*,4R*)-1,2-dihydroxy-4-(methylsulfonyl)cyclohexyl)methyl)-1-ethyl-1H-pyrazole-3-carboxamide] |  | 13 | 6.3 | Kd ([1]; ThermoFluor® Assay, Kd): 1.6 nM; inhibition at 1 µM (full-length human RORγt; HEK-293T, 1 μM compound concentration (footnote ***), read-out: RORγt (FL) Reporter Assay A or B, % inhibition): 99% |
| CCn1nc(C(=O)NC[C@]2(C#N)CC[C@@H](S(C)(=O)=O)CC2)c(Cl)c1-c1ccc(N[C@H](C)C(F)(F)F)cc1OC [Example 32, 4-Chloro-N-(((1s,4S)-1-cyano-4-(methylsulfonyl)cyclohexyl)methyl)-1-ethyl-5-(2-methoxy-4-(((R)-1,1,1-trifluoropropan-2-yl)amino)phenyl)-1H-pyrazole-3-carboxamide] | 7.6 | 62 | 53 | inhibition at 2 µM (full-length human RORγt; [5]): 96% |
| CCn1nc(C(=O)NC[C@H]2CC[C@H](S(C)(=O)=O)CC2)c(F)c1-c1ccc(N[C@H](C)C(F)(F)F)cc1OC [Example 203, 1-Ethyl-4-fluoro-5-(2-methoxy-4-(((R)-1,1,1-trifluoropropan-2-yl)amino)phenyl)-N-(((1r,4R)-4-(methylsulfonyl)cyclohexyl)methyl)-1H-pyrazole-3-carboxamide] | 17 | 39 | 130 | inhibition at 6 µM (full-length human RORγt; HEK-293T, read-out: RORγt (FL) Reporter Assay A or B, % inhibition @ 6 μM, 6 μM compound concentration): 105% |
| CCn1nc(C(=O)NC[C@]2(O)CC[C@@H](S(N)(=O)=O)CC2)c(Cl)c1-c1ccc(CC(C)(C)C(F)(F)F)cc1OC(F)F [Example 62, 4-Chloro-5-(2-(difluoromethoxy)-4-(3,3,3-trifluoro-2,2-dimethylpropyl)phenyl)-1-ethyl-N-(((1s,4s)-1-hydroxy-4-sulfamoylcyclohexyl)methyl)-1H-pyrazole-3-carboxamide] | 0.78 | 36 | 12 | inhibition at 3 µM (full-length human RORγt; HEK-293T, 3 μM compound concentration (footnote *), read-out: RORγt (FL) Reporter Assay A or B, % inhibition): 120% |
| CCn1nc(C(=O)NC[C@]2(O)CC[C@@H](S(C)(=O)=O)C[C@H]2O)c(Cl)c1-c1ccc(CC(C)(C)C(F)(F)F)cc1OC(F)F (single isomer, unassigned) [Example 46, 4-Chloro-5-(2-(difluoromethoxy)-4-(3,3,3-trifluoro-2,2-dimethylpropyl)phenyl)-N-(((1R*,2R*,4R*)-1,2-dihydroxy-4-(methylsulfonyl)cyclohexyl)methyl)-1-ethyl-1H-pyrazole-3-carboxamide] |  | 13 | 5 | Kd ([1]; ThermoFluor® Assay, Kd): 0.42 nM; inhibition at 0.67 µM (full-length human RORγt; [5]): 92% |
